Experimental data taken from patent US4775695A, “Substituted amidinoalkoxy and amidinoalkylamino indanones and salts thereof” (Merck & Co., Inc., priority 1987, dated 1988).
Counter-ions that a name gives are not always drawn.

System: cerebrocortical cat brain tissue slices
Assay: In vitro Cerebrocortical Cat Brain Tissue Slice Assay (inhibition of HCO3^- -stimulated swelling)
Details: 60 minutes, 37° C., 10 mM HCO3^-, 27 mM K^+
Protocol: See, e.g., Bourke et al., Neurochem. Res., 8, 5 (1983), and Cragoe et al., J. Med. Chem., 25, 567 (1982).
Adult cats of 2-3 kg body weight were employed in tissue slice studies. Prior to sacrifice, the animals were anesthetized with ketamine hydrochloride, 10 mg/kg intramuscularly. Eight (three control, five experimental) pial surface cerebrocortical tissue slices (0.5 mm thick; approximately 150 mg initial fresh weight) were cut successively with a calibrated Stadie-Riggs fresh tissue microtome without moistening and weighed successively on a torsion balance. During the slice preparation all operations except weighing were confined to a humid chamber. Each slice was rapidly placed in an individual Warburg flask containing 2 ml of incubation medium at room temperature. The basic composition of the incubation media was as follows: glucose, 10 mM; CaCl2, 1.3 mM; MgSO4, 1.2 mM; KHSO4, 1.2 mM; HEPES (N-2-hydroxyethylpiperazine-N'-2-ethanesulfonic acid, titrated with NaOH to pH 7.4), 20 mM. Except when adding HCO3^-, the osmolarity of the media was maintained isosmotic (approximately 285 mOsm/L) by reciprocal changes of Na^+ or K^+ to achieve a concentration of K^+ of 27 mM. The basic medium was saturated with oxygen by bubbling pure oxygen through the solution for 30 minutes before use. […]
Following the 60-minute incubation period, tissue slices were separated from incubation medium by filtration, reweighed, and homogenized in 1N HClO4 (10% w/v) for electrolyte analysis. […] Control slice swelling is expressed as microliters per gram initial preswelling fresh weight. The effectiveness of an inhibitor at a given concentration was measured by the amount of HCO3^- -stimulated swelling that occurred in its presence, computed as a percent of the maximum possible and is reported as an IC50. […] Tissue and media Na^+ and K^+ levels were determined by emission flame photometry with Li^+ internal standard; Cl^- levels were determined by amperometric titration. Tissue viability during incubation is monitored by manometry.

Q: For `CC1(C2CCCC2)Cc2cc(OCC(=N)N)c(Cl)c(Cl)c2C1=O` (single isomer, unassigned; (+)) [Example 6, (+)[(2-Cyclopentyl-6,7-dichloro-2,3-dihydro-2-methyl-1-oxo-1H-inden-5-yl)oxy]ethanimidamide hydrochloride 1/4 hydrate], which IC50 (hydrate) is on record?
A: 100 nM

Q: How did the IC50 (hydrate) turn out when `CC1(C2CCCC2)Cc2cc(OCC(=N)N)c(Cl)c(Cl)c2C1=O` (single isomer, unassigned; (-)) [Example 7, (-)[(2-Cyclopentyl-6,7-dichloro-2,3-dihydro-2-methyl-1-oxo-1H-inden-5-yl)oxy]ethanimidamide hydrochloride 1/4 hydrate] was run?
A: 5 nM

Q: Which IC50 (Felis catus, 1 h) does the source give for `CC1(C2CCCC2)Cc2cc(OCC(=N)N)c(Cl)c(Cl)c2C1=O` (stereo not drawn) [Example 2, [(2-Cyclopentyl-6,7-dichloro-2,3-dihydro-2-methyl-1-oxo-1H-inden-5-yl)oxy]ethanimidamide hydrochloride hemihydrate] here?
A: 10 nM
